Several values for one entry are separate records, joined by “and”; a condition that tells them apart may be missing. Equal entries are not always repeated.
Key:
CtPilB [1] = target: T1, CtPilB (Chloracidobacterium thermophilum, UniProt G2LDI3); assay: Malachite green ATPase assay, dose response (benchtop); type: biochemical; conditions: IC50, CtPilB ATPase activity, full-length CtPilB, curve fitting, three independent experiments
Procedure: The full-length CtPilB and the CtPilBΔN variant (with the first 139 residues at the N terminus truncated) were purified as preciously described ([29]). The HTS was conducted using 384-well microplates (Greiner, cat no. 781101). Each microwell for the screen contained a 15-μL reaction mixture consisting of 75 nM CtPilB, 0.5 mM ATP, 20 μM of a library compound, and 2% DMSO in activity buffer (50 mM N-tris(hydroxymethyl)methyl-3-aminopropanesulfonic acid [TAPS], 50 mM Tris, 75 mM KCl, 50 mM sodium acetate, 5 mM MgCl2, 50 mM ZnCl2 [pH 8.7]) ([29]). Reaction mixtures were incubated at 55°C for 10 min and transferred to ice for 5 min to stop the enzymatic reaction. MG reagent (50 μL) was added to each well for color development. After a 15-minute incubation, 5 μL of 34% (wt/vol) sodium-citrate (MP Chemicals) was added and the plate was mixed by shaking ([28], [29]). Absorbance at 620 nm (A620) was measured using a SpectraMax M5 microplate reader at room temperature. The HTS was performed at the Virginia Tech Center for Drug Discovery (VTCDD) Screening Laboratory.
(§1) The effects of inhibitors on the ATPase activity of CtPilB and CtPilBΔN and the binding of MANT-ATP were determined as described previously ([28], [29]). Stock solutions were prepared by dissolving benserazide hydrochloride (Alfa Aesar) or levodopa (Spectrum Chemical Mfg. Corp.) in dimethyl sulfoxide (DMSO; Fisher Biotech). Next, 10× working stocks for given concentrations of an inhibitor were freshly prepared before their use in an experiment. GraphPad Prism v7.04 was used for curve fitting and Student’s t test was used for statistical analysis.

CtPilB [2] = target: T1, CtPilB; assay: MANT-ATP binding to CtPilB (fluorescence); conditions: for Ki: estimated by Cheng-Prusoff equation from MANT-ATP IC50, assuming competitive inhibition, read-out: Ki (inhibition constant); for IC50: fraction of MANT-ATP bound, fluorescence
Procedure: To probe the mechanisms of inhibition, we examined benserazide and levodopa for their effects on the binding of PilB to the fluorescent ATP analog MANT-ATP ([28]).
FIG 3 Benserazide and levodopa reduce MANT-ATP binding to CtPilB. Fluorescence was used to calculate the fraction of MANT-ATP bound to CtPilB. Experiments were performed in triplicates with samples containing constant concentrations of CtPilB and MANT-ATP with varying concentrations of (A) benserazide or (B) levodopa. The three different sets of colored dots represent averages from three independent experiments with error bars omitted for clarity. Best fits to isotherms with indicated IC50s are shown.
as §1

M. xanthus S motility = assay: T4P-mediated social (S) motility, colony expansion on soft agar; type: cell-based, Myxococcus xanthus; conditions: soft agar, strains YZ1674 (MxPilB) and YZ2232 (MC3PilB), 5 days, P < 0.05
From the text: Benserazide and levodopa were examined to determine whether they could impact the T4P assembly function of PilB in vivo using M. xanthus as the model bacterium ([28]). […] Three M. xanthus strains were used for these experiments. Strain DK10416 lacks S motility because it is a pilB deletion (ΔpilB) mutant ([40]). The other two strains both assemble T4P and are proficient in S motility ([30]). Strain YZ1674 produces the wild-type (WT) M. xanthus PilB (MxPilB). YZ2232 expresses MC3PilB, a PilB chimera with the N terminus of MxPilB fused to the C-terminal ATPase domain of CtPilB ([30]). The PilB ATPase domains of MxPilB and MC3PilB are highly similar, with 66% shared identity and 77% similarity (Fig. S1).
FIG 5 Benserazide and levodopa inhibit T4P-mediated social (S) motility in Myxococcus xanthus. Expansion rates (cm/day) of the MxPilB (YZ1674) and the MC3PilB (YZ2232) strains on soft agar plates by S motility in the presence of (A and C) benserazide and (B and D) levodopa after 5 days of incubation. Results from three independent experiments are shown, each performed in quintuplicates with data points represented by dots of the same color. Horizontal black lines represent overall averages. Expansion rates were normalized by subtracting that of the ΔpilB strain, which has no S motility (also see Fig. S4). Asterisks (*) indicate that the values at the indicated concentrations are statistically different (P < 0.05) from those of the no-inhibitor control.
M. xanthus was grown and maintained at 32°C in Casitone-yeast extract (CYE) medium ([49]). Motility assays were conducted with strains DK10416 (ΔpilB) ([40]), YZ1674 (ΔpilB att::MxpilB) ([50]), and YZ2232 (ΔpilB att::MC3pilB) ([30], [51]) as previously described ([28]). One modification was that 10% India ink was included in the cell suspension to mark the initial spot on agar plates. All experiments were conducted in quintuplicates and the diameter of the initial spot, as marked by India ink, was subtracted for data analysis.

[3] = tested on: M. xanthus pilin (PilA) production; assay: Pilin production, dot blot of whole cells with anti-PilA antibodies; type: cell-based, Myxococcus xanthus; conditions: strain YZ603, whole cell dot blot
Procedure: Fig. 6A and B show a representative of the data from three biological experiments, each conducted with 4 technical replicates (R1 to R4).
Piliation levels of the M. xanthus strain YZ603 (ΔdifE) ([52]) were analyzed by dot-blotting with anti-PilA antibodies as previously described ([28]). This study included a fraction representing the “Basal” T4P levels for a given treatment. […] These fractions were used as controls and subtracted as the baseline in data analysis.

M. xanthus = assay: Growth in liquid culture; type: cell-based, Myxococcus xanthus; conditions: up to 512 μM (highest tested), data not shown
From the text: These include many bacteria with alarming prevalence for causing antibiotic-resistant infection ([12]). […] This is important because, for the development of antivirulence chemotherapies, the small molecules should not have an inhibitory effect on bacterial growth. Otherwise, they would select for resistance, just like antibiotics. From a chemical structure perspective, levodopa is 3,4-dihydroxyphenylalanine (Fig. 2), or phenylalanine with two hydroxyl groups. […] These preliminary studies of structure and activity relationships are consistent with benserazide and levodopa being specific inhibitors of PilB. As mentioned earlier, work with trifluoperazine ([25]) and P4MP4 ([26], [27]) has provided the proof of principle for antivirulence therapies with anti-T4P compounds. It is also encouraging that a compound targeting the adhesin function of the type 1 pilus of the uropathogenic E. coli (UPEC) ([47]) has moved to the clinical trial phase in the drug development pipeline ([48]).

T1 sequence (G2LDI3 entry or part of it): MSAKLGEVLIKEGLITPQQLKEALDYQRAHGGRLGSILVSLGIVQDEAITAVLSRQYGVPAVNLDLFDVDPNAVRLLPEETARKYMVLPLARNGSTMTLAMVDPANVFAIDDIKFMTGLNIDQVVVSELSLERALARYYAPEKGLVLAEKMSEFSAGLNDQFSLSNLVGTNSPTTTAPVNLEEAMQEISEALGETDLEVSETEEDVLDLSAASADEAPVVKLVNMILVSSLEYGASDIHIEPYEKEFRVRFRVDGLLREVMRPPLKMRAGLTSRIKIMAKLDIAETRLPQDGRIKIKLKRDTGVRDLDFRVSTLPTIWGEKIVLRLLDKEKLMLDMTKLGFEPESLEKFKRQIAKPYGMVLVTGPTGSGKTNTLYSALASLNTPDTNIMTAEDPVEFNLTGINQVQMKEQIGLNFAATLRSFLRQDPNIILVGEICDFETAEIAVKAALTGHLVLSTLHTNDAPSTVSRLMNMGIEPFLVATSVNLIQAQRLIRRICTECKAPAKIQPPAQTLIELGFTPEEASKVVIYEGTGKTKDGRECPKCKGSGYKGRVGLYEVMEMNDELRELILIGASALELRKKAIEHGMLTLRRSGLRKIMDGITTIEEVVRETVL

SMILES | IC50 (CtPilB [1]) | Ki (CtPilB [2]) | IC50 (CtPilB [2]) | concentration giving significant inhibition of S motility (M. xanthus S motility) | effect on pilin production level [3] | effect on growth in liquid culture (M. xanthus)
NC(CO)C(=O)NNCc1ccc(O)c(O)c1O (stereo not drawn) [benserazide] | 2.1 ± 0.4 µM | 2270 nM | 33.6 ± 0.5 µM | ≥ 8 µM | neither compound had any detectable effect | neither benserazide nor levodopa had any discernible effect on the growth
N[C@@H](Cc1ccc(O)c(O)c1)C(=O)O [levodopa, 3,4-dihydroxyphenylalanine] | 58 µM and 58.8 µM | 3400 nM | 50.5 ± 9.2 µM | ≥ 32 µM | neither compound had any detectable effect | neither benserazide nor levodopa had any discernible effect on the growth

From paper PMC9769694, “Discovery of Two Inhibitors of the Type IV Pilus Assembly ATPase PilB as Potential Antivirulence Compounds” (Microbiology Spectrum, 2022)
